For test [1], the target named is serotonin transporter (SERT) (Rattus norvegicus, UniProt P31652). In words: Inhibition of [3H]5-HT uptake by SERT in rat cerebral cortex. Type of test: biochemical.
The target of test [2] is norepinephrine transporter (NET) (Rattus norvegicus, UniProt Q63380). Put plainly: Inhibition of [3H]DA uptake by NET in rat cerebral cortex.
The target of test [3] is dopamine transporter (DAT) (Rattus norvegicus, UniProt P23977). Put plainly: Inhibition of [3H]DA uptake by DAT in rat striatum. Type of test: biochemical.
Sequence of dopamine transporter (DAT) (P23977 whole entry): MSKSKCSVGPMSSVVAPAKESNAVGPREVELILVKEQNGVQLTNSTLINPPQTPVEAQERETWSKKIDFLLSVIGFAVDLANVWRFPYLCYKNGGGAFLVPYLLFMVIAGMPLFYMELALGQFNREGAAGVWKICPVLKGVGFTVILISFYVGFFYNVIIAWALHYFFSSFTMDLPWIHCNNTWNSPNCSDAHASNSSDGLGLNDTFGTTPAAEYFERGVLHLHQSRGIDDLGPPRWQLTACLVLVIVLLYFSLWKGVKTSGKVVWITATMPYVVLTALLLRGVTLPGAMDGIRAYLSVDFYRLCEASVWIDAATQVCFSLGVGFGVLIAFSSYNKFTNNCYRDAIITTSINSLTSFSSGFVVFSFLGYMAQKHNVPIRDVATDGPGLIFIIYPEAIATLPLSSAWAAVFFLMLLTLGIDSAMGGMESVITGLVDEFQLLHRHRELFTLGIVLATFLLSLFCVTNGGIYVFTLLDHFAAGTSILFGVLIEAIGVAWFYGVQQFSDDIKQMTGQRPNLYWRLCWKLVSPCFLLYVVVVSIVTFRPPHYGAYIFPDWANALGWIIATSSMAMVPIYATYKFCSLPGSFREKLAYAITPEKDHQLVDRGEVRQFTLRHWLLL

Sequence of serotonin transporter (SERT) (P31652 whole entry): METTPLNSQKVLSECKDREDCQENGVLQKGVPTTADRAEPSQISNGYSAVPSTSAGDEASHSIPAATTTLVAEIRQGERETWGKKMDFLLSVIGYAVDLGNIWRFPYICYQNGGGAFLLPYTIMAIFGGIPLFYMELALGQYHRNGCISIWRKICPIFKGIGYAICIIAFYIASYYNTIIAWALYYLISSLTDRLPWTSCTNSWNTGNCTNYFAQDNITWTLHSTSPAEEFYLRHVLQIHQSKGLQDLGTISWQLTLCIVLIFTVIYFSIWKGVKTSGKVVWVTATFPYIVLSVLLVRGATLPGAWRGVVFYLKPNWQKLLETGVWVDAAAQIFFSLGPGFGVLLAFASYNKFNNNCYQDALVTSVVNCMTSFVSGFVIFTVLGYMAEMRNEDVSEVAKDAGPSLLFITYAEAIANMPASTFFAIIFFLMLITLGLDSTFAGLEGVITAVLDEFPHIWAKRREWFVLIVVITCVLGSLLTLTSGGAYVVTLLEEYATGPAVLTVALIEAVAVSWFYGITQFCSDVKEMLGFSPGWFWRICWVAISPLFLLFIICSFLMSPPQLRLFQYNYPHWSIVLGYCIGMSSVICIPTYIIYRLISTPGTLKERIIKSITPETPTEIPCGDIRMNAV
Sequence of norepinephrine transporter (NET) (Q63380 1-617): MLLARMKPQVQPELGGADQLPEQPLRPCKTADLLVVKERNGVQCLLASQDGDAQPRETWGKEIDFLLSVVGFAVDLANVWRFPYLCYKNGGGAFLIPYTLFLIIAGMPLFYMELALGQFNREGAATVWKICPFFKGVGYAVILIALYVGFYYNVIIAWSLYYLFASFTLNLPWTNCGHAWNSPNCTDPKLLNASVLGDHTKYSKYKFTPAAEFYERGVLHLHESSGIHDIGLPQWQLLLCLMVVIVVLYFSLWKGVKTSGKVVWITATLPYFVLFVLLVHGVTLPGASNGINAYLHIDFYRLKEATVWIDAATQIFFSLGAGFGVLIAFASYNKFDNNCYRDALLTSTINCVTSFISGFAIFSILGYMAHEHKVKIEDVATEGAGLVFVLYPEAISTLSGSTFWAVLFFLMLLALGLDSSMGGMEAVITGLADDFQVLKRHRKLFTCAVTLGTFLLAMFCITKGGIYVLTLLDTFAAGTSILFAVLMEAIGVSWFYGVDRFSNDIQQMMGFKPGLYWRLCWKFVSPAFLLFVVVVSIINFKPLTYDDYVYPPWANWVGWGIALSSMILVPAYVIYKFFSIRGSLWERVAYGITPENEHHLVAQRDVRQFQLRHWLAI

A word on the Ki: it is the equilibrium dissociation constant of an inhibitor or competing ligand from its target. Take “3-((((3S,5S)-5-benzhydryltetrahydrofuran-3-yl)amino)methyl)phenol [compound 40]”: the Ki came to 1.15 µM in test [1] (read-out: Ki uptake inhibition, SERT, text value in µM); 1.51 µM in test [2] (read-out: Ki uptake inhibition, NET, text value in µM); 0.94 µM in test [3] (read-out: Ki uptake inhibition, DAT, text value in µM).

Take `c1ccc(CCN[C@@H]2CO[C@H](C(c3ccccc3)c3ccccc3)C2)cc1` [compound 44, (3S,5S)-5-benzhydryl-N-phenethyltetrahydrofuran-3-amine]: the “activity against SERT (in words)” value in test [1] (uptake inhibition) was “inactive”. In test [2] (uptake inhibition), the “activity against NET (in words)” value is listed as “weak activity”. Moreover, the “activity against DAT (in words)” value in test [3] (uptake inhibition) is “weak activity”.

For the origin of these results see paper PMC3913050 (Bioorganic & medicinal chemistry, 2013).
